# US20200345701A1, “USE OF STATINS IN OVERCOMING RESISTANCE TO BETA-LACTAM ANTIBIOTICS IN BACTERIAL SPECIES SYNTHETIZING ISOPRENOIDS USING THE MEVALONATE SYNTHETIC PATHWAY” (CONSEJO SUPERIOR DE INVESTIGACIONES CIENTIFICAS (CSIC), priority 2017, published 2020)
# Entries after “also recorded” stand apart in the source; their conditions may differ.
# Tests used:
# FloA membrane foci = FloA membrane foci count by fluorescence microscopy; assay type: cell-based, Staphylococcus aureus; conditions: ZA 50 μM
# Description: Cells from liquid cultures were washed in PBS and resuspended in 0.5 ml 4% paraformaldehyde (6 min, room temperature). Samples were washed twice and resuspended in 0.5 ml PBS. Images were acquired on a Leica DMI6000B microscope equipped with a CRT6000 illumination system, with a HCX PL APO oil immersion objective (100×1.47) and a color camera DFC630FX. Leica Application Suite Advanced Fluorescence
# Software was used for linear image processing. The YFP signal was detected (excitation filter 489 nm, emission filter 508 nm). Excitation times were 567 msec. Transmitted light images were taken with 55 msec excitation time.
# FloA and PBP2a = FloA and PBP2a oligomerization by sucrose gradient centrifugation; conditions: membrane fraction of ZA-treated versus untreated cells
# Description: FloA oligomerization in S. aureus WT and Δcrt mutant and PBP2a oligomerization were analyzed in sucrose gradient assays. S. aureus cultures were harvested and cells crosslinked with 0.5 mM DSP (dithiobis(succinimidyl propionate)) before cell lysis and membrane fraction purification. Purified membrane fractions (200 μg) solubilized with 0.5% DDM were layered on a 5-40% linear sucrose gradient generated by a Biocomp gradient maker, then centrifuged (Beckman; 100,000 g, 16 h, 4° C.). Fractions (1 ml) were collected from the bottom of the gradient and proteins associated with each fraction were precipitated with 10% trichloroacetic acid (TCA). Protein fractions were dried and resuspended in PBS prior to immunoblot analyses.
# MRSA = assay type: cell-based, Staphylococcus aureus; conditions: β-lactam antibiotics; treated versus untreated MRSA
# PBP2a = assay type: cell-based; conditions: ZA-treated MRSA cells; bands at ~80 kDa
# [1] = system: Staphylococcus aureus MRSA strain USA300; test: In vitro MRSA cell growth inhibition (bacterial count CFU/ml), statin or ZA with oxacillin; assay type: cell-based; conditions: for MRSA growth (CFU/ml) with oxacillin plus compound: combination with the β-lactam antibiotic oxacillin
# S. aureus = test: Growth curves of S. aureus cultures at different ZA concentrations; assay type: cell-based, Staphylococcus aureus; conditions: ZA 50 μM; TSB medium, 36 h, 37° C.
# MRSA ΔfloA mutant [2] = test: β-lactam antibiotic sensitivity of MRSA ΔfloA mutant versus WT; assay type: cell-based, Staphylococcus aureus; conditions: antibiotic concentrations that typically inhibit MSSA growth
# MRSA ΔfloA mutant [3] = conditions: mice infected with ΔfloA mutant, 3×10^7 CFU; oxacillin 200 mg/kg/day; three days post-infection
# Description: (§1) Female BALB/c mice (8-10 weeks old, 16-19 g weight) were purchased (Charles River Laboratories), Mice were housed in polypropylene cages in standardized lighting conditions and had ad libitum access to food and water.
# (§2) The S. aureus strains were cultured on BHI medium (18 h, 37° C.). Cells were collected, washed three times with PBS and diluted to OD600 nm=0.05. Viable cell counts were determined by plating inoculum dilutions on TSB agar plates. For survival experiments, cohorts of 10 mice were infected with 150 μl of S. aureus cultures (3×10^7 cells) via intravenous injection. Each strain was used to infect one mouse cohort. Doses of oxacillin (200 mg/kg) alone or in combination with ZA (50 mg/Kg or 20 mg/Kg) were injected intraperitoneally (i.p.) daily for 1-4 days. […] The first dose was administered 30 min after the bacterial inoculation. Infections were allowed to progress until severe infection signs occurred or to a 3-day endpoint. Mice were sacrificed when they met the following criteria: 1) loss of at least 20% body weight, 2) loss of at least 15% body weight and ruffled fur, 3) loss of at least 10% body weight and hunched posture, or 4) 4 days post-infection.
# MRSA WT strain = test: Murine infection model, survival, WT strain; conditions: mice infected with WT, 3×10^7 CFU; oxacillin 200 mg/kg/day; three days post-infection
# Description: as §1, §2
# FloA (WT flotillin) = FloA (WT flotillin) (Staphylococcus aureus, UniProt Q99TS3); assay type: binding; conditions: purified WT FloA; sucrose gradient, FloA immunodetection in lipid fraction
# Chain of FloA (WT flotillin) (Q99TS3 whole entry, looked up): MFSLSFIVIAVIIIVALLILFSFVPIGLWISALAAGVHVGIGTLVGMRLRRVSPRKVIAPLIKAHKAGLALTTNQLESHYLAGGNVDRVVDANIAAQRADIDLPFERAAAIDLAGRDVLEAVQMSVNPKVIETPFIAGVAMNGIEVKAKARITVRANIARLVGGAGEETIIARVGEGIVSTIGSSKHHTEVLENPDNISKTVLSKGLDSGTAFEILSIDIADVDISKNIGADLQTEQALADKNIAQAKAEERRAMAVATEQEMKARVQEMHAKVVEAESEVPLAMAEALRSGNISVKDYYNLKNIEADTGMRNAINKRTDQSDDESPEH
# ΔEA4 flotillin variant [4] = assay type: binding, Staphylococcus aureus
# ΔMAR flotillin variant [5] = assay type: binding, Staphylococcus aureus
# ΔPHB flotillin variant [6] = assay type: binding, Staphylococcus aureus
# ΔPHB flotillin variant [7] = assay type: binding, Staphylococcus aureus; remark: listed apart in the source
# ΔMAR flotillin variant [8] = assay type: binding, Staphylococcus aureus; remark: listed apart in the source
# ΔEA4 flotillin variant [9] = assay type: binding, Staphylococcus aureus; remark: listed apart in the source
smiles,measurement,setting,value
"C=C(CC[C@]12O[C@H](C(=O)O)[C@@](O)(C(=O)O)[C@](C(=O)O)(O1)[C@H](OC(=O)/C=C/[C@@H](C)C[C@@H](C)CC)[C@H]2O)[C@@H](OC(C)=O)[C@H](C)Cc1ccccc1 [ZA, Zaragozic acid]",number of FloA membrane foci,FloA membrane foci,reduced
same,oligomerization of flotillin and PBP2a (sucrose gradient),FloA and PBP2a,reduced oligomerization of flotillin and PBP2a
same,antibiotic sensitivity profile of treated MRSA cultures,MRSA,resembled those of the ΔfloA mutant
same,PBP2a oligomerization (BN-PAGE),PBP2a,deficient PBP2a oligomerization
same,effect of increasing compound concentration on antibiotic effect of oxacillin,"[1]; MRSA cultures, combination with oxacillin",potentiated the antibiotic effect of oxacillin
same,MRSA growth (CFU/ml) with oxacillin plus compound,[1],inhibited
same,MRSA growth (CFU/ml) in the presence of compound alone,[1]; without oxacillin,unaltered
same,S. aureus growth,S. aureus,no growth defects; also recorded: did not affect
CC1(C)S[C@@H]2[C@H](NC(=O)[C@H](N)c3ccccc3)C(=O)N2[C@H]1C(=O)O [ampicillin],growth / resistance of ΔfloA compared to WT in presence of β-lactam antibiotic,MRSA ΔfloA mutant [2],comparable resistance
CC(C)c1c(C(=O)Nc2ccccc2)c(-c2ccccc2)c(-c2ccc(F)cc2)n1CC[C@@H](O)C[C@@H](O)CC(=O)O [atorvastatin],MRSA growth (CFU/ml) with oxacillin plus compound,[1],did not alter the MRSA antibiotic-resistant phenotype
Cc1onc(-c2c(Cl)cccc2Cl)c1C(=O)N[C@@H]1C(=O)N2[C@@H]1SC(C)(C)[C@@H]2C(=O)O [dicloxacillin],growth / resistance of ΔfloA compared to WT in presence of β-lactam antibiotic,MRSA ΔfloA mutant [2],severe growth inhibition
Cc1onc(-c2c(F)cccc2Cl)c1C(=O)N[C@@H]1C(=O)N2[C@@H]1SC(C)(C)[C@@H]2C(=O)O [flucoxacillin],growth / resistance of ΔfloA compared to WT in presence of β-lactam antibiotic,MRSA ΔfloA mutant [2],severe growth inhibition
COc1cccc(OC)c1C(=O)N[C@@H]1C(=O)N2[C@@H]1SC(C)(C)[C@@H]2C(=O)O [methicillin],growth / resistance of ΔfloA compared to WT in presence of β-lactam antibiotic,MRSA ΔfloA mutant [2],severe growth inhibition
CCOc1ccc2ccccc2c1C(=O)N[C@@H]1C(=O)N2[C@@H]1SC(C)(C)[C@@H]2C(=O)O [nafcillin],growth / resistance of ΔfloA compared to WT in presence of β-lactam antibiotic,MRSA ΔfloA mutant [2],severe growth inhibition
Cc1onc(-c2ccccc2)c1C(=O)N[C@@H]1C(=O)N2[C@@H]1SC(C)(C)[C@@H]2C(=O)O [oxacillin],survival rate,MRSA ΔfloA mutant [3],70%
same,survival rate,MRSA WT strain,10%
same,growth / resistance of ΔfloA compared to WT in presence of β-lactam antibiotic,MRSA ΔfloA mutant [2],severe growth inhibition
CCC(C)CCCCCCCCCCC(=O)OC[C@H]1O[C@@H](OC(=O)/C(C)=C/C=C/C(C)=C/C=C/C(C)=C/C=C/C=C(C)/C=C/C=C(\C)CCC=C(C)C)[C@H](O)[C@@H](O)[C@@H]1O (stereo partly drawn) [staphyloxanthin],lipid-protein interaction in flotation assay,FloA (WT flotillin),interacted strongly
same,lipid-protein interaction in flotation assay,ΔEA4 flotillin variant [4],interacted strongly
same,Kd,ΔMAR flotillin variant [5],12 nM
same,Kd,ΔPHB flotillin variant [6],943 nM
same,lipid-protein interaction in flotation assay,ΔPHB flotillin variant [7],showed no tendency to interact
same,lipid-protein interaction in flotation assay,ΔMAR flotillin variant [8],interacted strongly
same,Kd,ΔEA4 flotillin variant [9],9.43 nM
